Experimental data reported in PubChem BioAssay AID330 (DTP/NCI, 2004).
Several values for one entry are separate records, joined by “and”; a condition that tells them apart may be missing. Equal values may be shown once. Inconclusive results and toxic doses are left out. The calls were made as follows: active = survival T/C of 150% or more; inactive = T/C below 125% in these data. Square brackets hold non-standard residues; d marks the D form. Peptide text beside a SMILES is read from it. * marks the point of attachment. ξ: configuration not given here. ξF = NC(Cc1ccccc1)C(=O)O; Cbz = O=C(OCc1ccccc1)*; ξV = CC(C)C(N)C(=O)O; Sar = CNCC(=O)O

Test system: P388 leukemia ip, CD2F1 mice, survival T/C
Assay: NCI In Vivo Anticancer Drug Screen. Data for tumor model P388 Leukemia (intraperitoneal) in CD2F1 (CDF1) mice
Conditions: endpoint: median survival time, higher = longer survival
Summary of the method: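 Mice carrying the transplanted tumor received test compound or vehicle. Survival was recorded in each group, and the value is the treated-group measurement divided by that of the vehicle-treated control group.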

[1] = dose: 50.0 mg/kg/injection, schedule: Q01DX005 (ip), vehicle: saline with Tween-80
[2] = dose: 100.0 mg/kg/injection, schedule: Q01DX005 (ip), vehicle: saline with Tween-80
[3] = dose: 100.0 mg/kg/injection, schedule: Q01DX001 (ip), vehicle: Klucel (hydroxypropylcellulose) (HPC)
[4] = dose: 200.0 mg/kg/injection, schedule: Q01DX001 (ip), vehicle: Klucel (hydroxypropylcellulose) (HPC)
[5] = dose: 50.0 mg/kg/injection, schedule: Q01DX005 (ip), vehicle: Klucel (hydroxypropylcellulose) (HPC)
[6] = dose: 100.0 mg/kg/injection, schedule: Q01DX005 (ip), vehicle: Klucel (hydroxypropylcellulose) (HPC)
[7] = dose: 200.0 mg/kg/injection, schedule: Q01DX005 (ip), vehicle: Klucel (hydroxypropylcellulose) (HPC)
[8] = dose: 200.0 mg/kg/injection, schedule: Q01DX005 (ip), vehicle: saline with Tween-80
[9] = dose: 25.0 mg/kg/injection, schedule: Q01DX009 (ip), vehicle: saline with Tween-80
[10] = dose: 50.0 mg/kg/injection, schedule: Q01DX009 (ip), vehicle: saline with Tween-80
[11] = dose: 12.5 mg/kg/injection, schedule: Q01DX009 (ip), vehicle: saline with Tween-80
[12] = dose: 100.0 mg/kg/injection, schedule: Q01DX009 (ip), vehicle: saline with Tween-80
[13] = dose: 60.0 mg/kg/injection, schedule: Q01DX005 (ip), vehicle: saline with Tween-80
[14] = dose: 120.0 mg/kg/injection, schedule: Q01DX005 (ip), vehicle: saline with Tween-80
[15] = dose: 200.0 mg/kg/injection, schedule: Q01DX009 (ip), vehicle: saline with Tween-80

Measured: T/C

S=c1sc2ccccc2n1CN1CCOCC1
inactive: dose: 25.0 mg/kg/injection, schedule: Q01DX005 (ip), vehicle: saline with Tween-80 107 % of control | [1] 104 % of control and 114 % of control | [2] 121 % of control and 124 % of control

Cn1cnc2c1c(=O)n(N)c(=O)n2C
inactive: dose: 60.0 mg/kg/injection, schedule: Q01DX005 (ip), vehicle: Klucel (hydroxypropylcellulose) (HPC) 102 % of control | dose: 120.0 mg/kg/injection, schedule: Q01DX005 (ip), vehicle: Klucel (hydroxypropylcellulose) (HPC) 98 % of control | dose: 240.0 mg/kg/injection, schedule: Q01DX005 (ip), vehicle: Klucel (hydroxypropylcellulose) (HPC) 92 % of control

CC(C)CC(=O)N(CCC#N)c1ncc([N+](=O)[O-])s1
inactive: [3] 110 % of control | [4] 98 % of control

N#CC(C(N)=O)C(CC(=O)c1ccccc1)c1ccccc1 (stereo not drawn)
inactive: [5] 100 % of control | [6] 102 % of control | [7] 101 % of control

NCC(=O)NC(Cc1ccccc1)C(=O)NCC(=O)O (stereo not drawn) (H-Gly-[ξF]-Gly-OH)
inactive: [5] 100 % of control | [6] 104 % of control | [7] 100 % of control

COc1ccc2c(c1)CN(CCc1ccccc1)CO2
inactive: [1] 101 % of control | [2] 101 % of control | [8] 97 % of control

CC[C@@]1(O)C[C@H](OC2CCC(OC3CC(OC(C)=O)C(OC(C)=O)C(C)O3)C(C)O2)c2c(O)c3c(c(O)c2[C@H]1C(=O)OC)C(=O)c1cccc(O)c1C3=O (stereo partly drawn)
inactive: dose: 3.13 mg/kg/injection, schedule: Q04DX003 (ip), vehicle: distilled water + Tween-80 100 % of control | dose: 6.25 mg/kg/injection, schedule: Q04DX003 (ip), vehicle: distilled water + Tween-80 100 % of control | dose: 12.5 mg/kg/injection, schedule: Q04DX003 (ip), vehicle: distilled water + Tween-80 101 % of control | dose: 25.0 mg/kg/injection, schedule: Q04DX003 (ip), vehicle: distilled water + Tween-80 105 % of control | dose: 50.0 mg/kg/injection, schedule: Q04DX003 (ip), vehicle: distilled water + Tween-80 103 % of control

CCN(CC)CCNc1ccc(C)c2sc3ccc(OC)cc3c(=O)c12
inactive: [9] 115 % of control | [10] 115 % of control and 90 % of control

O=c1c2cnc(-c3ccccc3)nc2oc2ccc3ccccc3c12
inactive: [11] 97 % of control | [9] 96 % of control | [10] 87 % of control and 92 % of control | [12] 90 % of control

Cc1nn(-c2ccccc2)nc1C(=O)Nc1ccc2[nH]ncc2c1
inactive: [13] 91 % of control | [14] 94 % of control | dose: 240.0 mg/kg/injection, schedule: Q01DX005 (ip), vehicle: saline with Tween-80 86 % of control

CCCCc1ccc(N2C(N)=NC(N)=NC2(C)C)cc1
inactive: dose: 3.12 mg/kg/injection, schedule: Q01DX005 (ip), vehicle: Klucel (hydroxypropylcellulose) (HPC) 108 % of control and 106 % of control and 111 % of control | dose: 6.25 mg/kg/injection, schedule: Q01DX005 (ip), vehicle: Klucel (hydroxypropylcellulose) (HPC) 110 % of control [middle of 4 runs] | dose: 12.5 mg/kg/injection, schedule: Q01DX005 (ip), vehicle: Klucel (hydroxypropylcellulose) (HPC) 114 % of control [middle of 4 runs] | dose: 25.0 mg/kg/injection, schedule: Q01DX005 (ip), vehicle: Klucel (hydroxypropylcellulose) (HPC) 120 % of control and 109 % of control

C/C(NCCc1ccccc1)=C1\CCOC1=O
inactive: dose: 50.0 mg/kg/injection, schedule: Q01DX001 (ip), vehicle: Klucel (hydroxypropylcellulose) (HPC) 101 % of control | [3] 96 % of control | [4] 104 % of control

Fc1ccc(CSC(=S)Nc2ccc(F)cc2)cc1
inactive: dose: 50.0 mg/kg/injection, schedule: Q01DX009 (ip), vehicle: suspension in saline 108 % of control | dose: 100.0 mg/kg/injection, schedule: Q01DX009 (ip), vehicle: suspension in saline 103 % of control | dose: 200.0 mg/kg/injection, schedule: Q01DX009 (ip), vehicle: suspension in saline 108 % of control

N=Nc1c(OC(=O)Nc2cccc(Cl)c2)[nH]c2ccccc12
inactive: [10] 94 % of control | [12] 90 % of control | [15] 93 % of control

CC(C)C(NC(=O)CN(C)C(=O)OCc1ccccc1)C(=O)O (stereo not drawn) (Cbz-[Sar]-[ξV]-OH)
inactive: [1] 100 % of control | [2] 102 % of control

COc1ccc(N(N=O)c2c(C)cc(C)cc2C)c(C(=O)O)c1
inactive: [5] 96 % of control | [6] 96 % of control | [7] 98 % of control

CCOC(=O)C1C(=O)[C@H](C(=O)OC)C2CCCC3CCCC1N32 (stereo partly drawn)
inactive: [13] 86 % of control | [14] 87 % of control

COc1cc(NCCCN=C(N)N)c2ncccc2c1
inactive: dose: 1.56 mg/kg/injection, schedule: Q01DX005 (ip), vehicle: saline with Tween-80 99 % of control | dose: 3.13 mg/kg/injection, schedule: Q01DX005 (ip), vehicle: saline with Tween-80 98 % of control | dose: 6.25 mg/kg/injection, schedule: Q01DX005 (ip), vehicle: saline with Tween-80 102 % of control and 92 % of control

OCC(Br)(Br)Br
inactive: dose: 100.0 mg/kg/injection, schedule: Q01DX001 (ip), vehicle: saline with Tween-80 100 % of control | dose: 200.0 mg/kg/injection, schedule: Q01DX001 (ip), vehicle: saline with Tween-80 98 % of control | dose: 400.0 mg/kg/injection, schedule: Q01DX001 (ip), vehicle: saline with Tween-80 100 % of control

c1ccc(CCNCCN2CCNCC2)cc1
inactive: dose: 60.0 mg/kg/injection, schedule: Q01DX005 (ip), vehicle: saline 108 % of control | dose: 120.0 mg/kg/injection, schedule: Q01DX005 (ip), vehicle: saline 99 % of control

CC12CC(OC(=O)[C@]1(C)O)[C@@H]([C@]1(O)CC[C@H]3[C@@H]4C[C@H]5O[C@]56[C@@H](O)C=CC(=O)[C@]6(C)[C@H]4CC[C@@]31C)C2 (stereo partly drawn)
inactive: dose: 2.0 mg/kg/injection, schedule: Q01DX009 (ip), vehicle: saline + alcohol 100 % of control | dose: 4.0 mg/kg/injection, schedule: Q01DX005 (ip), vehicle: saline + alcohol 108 % of control and 120 % of control | dose: 4.0 mg/kg/injection, schedule: Q01DX009 (ip), vehicle: saline + alcohol 105 % of control | dose: 8.0 mg/kg/injection, schedule: Q01DX005 (ip), vehicle: saline + alcohol 110 % of control and 111 % of control | dose: 8.0 mg/kg/injection, schedule: Q01DX009 (ip), vehicle: saline + alcohol 96 % of control | dose: 16.0 mg/kg/injection, schedule: Q01DX005 (ip), vehicle: saline + alcohol 109 % of control and 111 % of control | dose: 16.0 mg/kg/injection, schedule: Q01DX009 (ip), vehicle: saline + alcohol 96 % of control | dose: 32.0 mg/kg/injection, schedule: Q01DX005 (ip), vehicle: saline + alcohol 107 % of control | dose: 32.0 mg/kg/injection, schedule: Q01DX009 (ip), vehicle: saline + alcohol 87 % of control

O=C(CBr)c1ccc(F)cc1
inactive: [11] 113 % of control | dose: 25.0 mg/kg/injection, schedule: Q04DX003 (ip), vehicle: saline with Tween-80 104 % of control | dose: 50.0 mg/kg/injection, schedule: Q04DX003 (ip), vehicle: saline with Tween-80 100 % of control

Fc1cccc(N=Nc2c(-c3ccccc3)nn(C(=S)S)c2-c2ccccc2)c1
inactive: [1] 104 % of control | [2] 101 % of control | [8] 106 % of control

COc1ccc(N=C(c2ccccc2)C2C(=O)c3ccccc3C2=O)cc1
inactive: [1] 103 % of control | [2] 108 % of control | [8] 112 % of control

CC(=O)CC(=O)Nc1ccccc1
inactive: dose: 12.5 mg/kg/injection, schedule: Q01DX009 (ip), vehicle: saline 105 % of control | dose: 25.0 mg/kg/injection, schedule: Q01DX009 (ip), vehicle: saline 94 % of control | dose: 50.0 mg/kg/injection, schedule: Q01DX009 (ip), vehicle: saline 88 % of control

COc1cc(C(=O)N2C3C4CCC(C)(OC4(C)C)C32)cc(OC)c1OC (stereo not drawn)
inactive: [5] 95 % of control | [6] 97 % of control | [7] 94 % of control

O=C(COc1ccc(Cl)cc1Cl)Nc1ccccc1C(=O)c1ccccc1
inactive: [10] 101 % of control | [12] 101 % of control | [15] 94 % of control

CC(C)OC(CCCl)c1ccc(Cl)cc1 (stereo not drawn)
inactive: dose: 100.0 mg/kg/injection, schedule: Q04DX003 (ip), vehicle: saline with Tween-80 109 % of control | dose: 200.0 mg/kg/injection, schedule: Q04DX003 (ip), vehicle: saline with Tween-80 100 % of control
